In ChEMBL document CHEMBL1201862, “PubChem BioAssay data set” (2004):
The source made the active and inactive calls.

What was measured:
[1] = target: T1, Short transient receptor potential channel 4 (Mus musculus, UniProt Q9QUQ5); experiment: mouse TRPC4 channel activators, dose response, cell-based, HEK293 TRPC4/mu-opioid, Fluo-4 calcium (AID 434937); assay type: functional
T1 sequence (Q9QUQ5 whole entry): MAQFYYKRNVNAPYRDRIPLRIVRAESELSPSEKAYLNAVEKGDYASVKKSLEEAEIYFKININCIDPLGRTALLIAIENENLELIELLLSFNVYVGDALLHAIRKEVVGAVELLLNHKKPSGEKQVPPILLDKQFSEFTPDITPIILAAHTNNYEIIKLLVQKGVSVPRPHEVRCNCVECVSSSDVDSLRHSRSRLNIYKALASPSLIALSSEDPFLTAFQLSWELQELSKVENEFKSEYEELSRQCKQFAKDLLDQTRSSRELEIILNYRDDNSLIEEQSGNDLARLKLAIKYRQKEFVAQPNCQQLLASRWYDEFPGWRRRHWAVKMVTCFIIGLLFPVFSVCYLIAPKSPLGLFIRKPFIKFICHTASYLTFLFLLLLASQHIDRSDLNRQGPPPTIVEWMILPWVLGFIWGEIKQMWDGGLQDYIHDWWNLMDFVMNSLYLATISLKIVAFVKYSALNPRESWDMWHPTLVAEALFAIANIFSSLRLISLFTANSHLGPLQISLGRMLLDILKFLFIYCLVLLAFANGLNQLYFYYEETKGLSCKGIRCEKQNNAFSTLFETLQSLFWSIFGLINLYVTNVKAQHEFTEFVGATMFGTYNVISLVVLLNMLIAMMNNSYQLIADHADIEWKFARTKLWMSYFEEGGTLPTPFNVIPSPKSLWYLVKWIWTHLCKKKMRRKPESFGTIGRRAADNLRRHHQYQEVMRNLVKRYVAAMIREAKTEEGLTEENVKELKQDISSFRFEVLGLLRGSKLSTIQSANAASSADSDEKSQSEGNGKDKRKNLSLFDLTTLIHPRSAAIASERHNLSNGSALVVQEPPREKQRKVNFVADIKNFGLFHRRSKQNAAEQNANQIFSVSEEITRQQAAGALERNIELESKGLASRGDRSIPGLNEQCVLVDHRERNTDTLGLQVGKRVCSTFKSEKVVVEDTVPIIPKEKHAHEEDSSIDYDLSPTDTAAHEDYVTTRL

HEK293 [2] = experiment: NOD2 signaling inhibitors in MDP-stimulated cells, cell-based, uHTS, luminescence (AID 2001); assay type: functional; settings: Homo sapiens
HEK293 [3] = experiment: cells; assay type: functional, cell-based; settings: Homo sapiens
[4] = target: T2, Corticotropin-releasing factor receptor 2/Corticotropin-releasing factor-binding protein (Homo sapiens, UniProt P24387+Q13324); experiment: activators of CRF receptor 2 with binding protein – uHTS hits, confirmation (AID 602473); assay type: functional; settings: read-out: EC50_Mean
T2 sequence (Q13324 whole entry): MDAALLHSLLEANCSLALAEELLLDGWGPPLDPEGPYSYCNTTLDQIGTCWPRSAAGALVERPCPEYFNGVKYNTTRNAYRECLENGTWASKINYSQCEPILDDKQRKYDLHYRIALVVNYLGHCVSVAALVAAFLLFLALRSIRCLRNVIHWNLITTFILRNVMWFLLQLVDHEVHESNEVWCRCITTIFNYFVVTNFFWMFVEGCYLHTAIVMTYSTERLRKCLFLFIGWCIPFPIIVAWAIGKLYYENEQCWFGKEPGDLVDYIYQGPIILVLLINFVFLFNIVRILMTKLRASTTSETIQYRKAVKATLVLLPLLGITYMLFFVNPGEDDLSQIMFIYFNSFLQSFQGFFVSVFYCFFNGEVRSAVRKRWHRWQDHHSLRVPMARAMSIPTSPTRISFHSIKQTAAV
T2 sequence (P24387 whole entry): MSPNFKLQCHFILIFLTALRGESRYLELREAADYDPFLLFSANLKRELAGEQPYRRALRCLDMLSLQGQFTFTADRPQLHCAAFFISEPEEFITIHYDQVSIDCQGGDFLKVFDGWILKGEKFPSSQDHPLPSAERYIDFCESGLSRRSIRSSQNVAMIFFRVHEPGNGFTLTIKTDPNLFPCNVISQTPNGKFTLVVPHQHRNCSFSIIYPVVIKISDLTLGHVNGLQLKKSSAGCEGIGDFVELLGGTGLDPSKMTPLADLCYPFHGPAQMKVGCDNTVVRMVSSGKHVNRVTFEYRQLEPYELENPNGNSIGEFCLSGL

HEK293 [5] = experiment: NOD1 signaling inhibitors, primary screen, cell-based, luminescence, uHTS (AID 1578); assay type: functional; settings: Homo sapiens
HEK293 [6] = experiment: cells; assay type: functional, cell-based; settings: Homo sapiens; remark: listed apart in the source
Coagulation factor XII = target: T3, Coagulation factor XII (Homo sapiens, UniProt P00748); assay type: functional;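 also: activated factor XIIa alpha cleaving a fluorogenic AMC peptide substrate; inhibitor potency from loss of enzyme activity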
T3 sequence (P00748 whole entry): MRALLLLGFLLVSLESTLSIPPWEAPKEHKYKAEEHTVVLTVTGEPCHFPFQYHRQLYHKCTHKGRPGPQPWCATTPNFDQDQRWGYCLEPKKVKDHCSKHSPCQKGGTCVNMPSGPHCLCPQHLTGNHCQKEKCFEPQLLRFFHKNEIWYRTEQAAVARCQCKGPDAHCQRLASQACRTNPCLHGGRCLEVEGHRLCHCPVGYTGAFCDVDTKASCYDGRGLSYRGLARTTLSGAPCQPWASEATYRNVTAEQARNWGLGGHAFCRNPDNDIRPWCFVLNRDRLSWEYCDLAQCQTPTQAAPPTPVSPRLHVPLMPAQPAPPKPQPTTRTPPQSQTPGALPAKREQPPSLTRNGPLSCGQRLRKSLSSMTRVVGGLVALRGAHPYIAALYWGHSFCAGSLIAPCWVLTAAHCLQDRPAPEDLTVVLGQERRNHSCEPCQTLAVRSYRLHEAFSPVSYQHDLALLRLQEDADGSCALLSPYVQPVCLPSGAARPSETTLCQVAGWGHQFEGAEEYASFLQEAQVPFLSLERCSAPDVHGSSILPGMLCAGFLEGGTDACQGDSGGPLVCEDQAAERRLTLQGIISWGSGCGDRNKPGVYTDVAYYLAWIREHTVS

Streptococcus = experiment: Group A Streptococcus viability loss, dose response, counter-screen for streptokinase expression inhibitor project, luminescence, BacTiterGlo (AID 1915); assay type: functional, organism-based;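 also: potency for reduction of bacterial viability or growth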
[7] = tested on: Streptococcus sp. 'group A'; experiment: growth inhibition of control SK(-) GAS strain, dose response, counter-screen for streptokinase expression inhibitor project, luminescence, kanamycin, BacTiterGlo, confirmation (AID 1900); assay type: functional, organism-based
Streptokinase A = target: T4, Streptokinase A (Streptococcus pyogenes serotype M1, UniProt P10520); experiment: S. pyogenes streptokinase expression inhibitors, potency, dose response, plasminogen activation absorbance, OD405 (AID 1914); assay type: functional, Streptococcus pyogenes M1 GAS;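 also: secreted streptokinase activity via plasminogen activation per viability signal from cell pellet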
T4 sequence (P10520 whole entry): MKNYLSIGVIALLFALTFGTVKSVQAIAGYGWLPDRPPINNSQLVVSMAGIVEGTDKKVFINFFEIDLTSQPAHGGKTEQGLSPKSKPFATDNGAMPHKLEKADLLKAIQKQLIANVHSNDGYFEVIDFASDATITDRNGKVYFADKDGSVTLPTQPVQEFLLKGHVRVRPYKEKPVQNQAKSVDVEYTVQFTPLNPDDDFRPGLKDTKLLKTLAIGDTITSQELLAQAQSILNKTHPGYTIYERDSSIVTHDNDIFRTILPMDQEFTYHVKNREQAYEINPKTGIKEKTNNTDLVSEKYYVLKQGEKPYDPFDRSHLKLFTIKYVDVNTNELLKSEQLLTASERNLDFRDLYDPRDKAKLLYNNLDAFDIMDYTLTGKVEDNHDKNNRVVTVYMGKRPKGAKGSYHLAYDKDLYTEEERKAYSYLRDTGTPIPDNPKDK

[8] = Luminescence Cell-Based Dose Confirmation HTS to Identify Inhibitors of Platelet Dense Granule Release. [Related pubchem assays: 1663 (Primary HTS), 1678 (Summary of Project)]; assay type: functional
[9] = target: Luciferin 4-monooxygenase (Photinus pyralis, UniProt P08659); experiment: firefly luciferase enzyme inhibitors, dose response, biochemical, luminescence (AID 1891)
Luciferin 4-monooxygenase, sequence (P08659 whole entry): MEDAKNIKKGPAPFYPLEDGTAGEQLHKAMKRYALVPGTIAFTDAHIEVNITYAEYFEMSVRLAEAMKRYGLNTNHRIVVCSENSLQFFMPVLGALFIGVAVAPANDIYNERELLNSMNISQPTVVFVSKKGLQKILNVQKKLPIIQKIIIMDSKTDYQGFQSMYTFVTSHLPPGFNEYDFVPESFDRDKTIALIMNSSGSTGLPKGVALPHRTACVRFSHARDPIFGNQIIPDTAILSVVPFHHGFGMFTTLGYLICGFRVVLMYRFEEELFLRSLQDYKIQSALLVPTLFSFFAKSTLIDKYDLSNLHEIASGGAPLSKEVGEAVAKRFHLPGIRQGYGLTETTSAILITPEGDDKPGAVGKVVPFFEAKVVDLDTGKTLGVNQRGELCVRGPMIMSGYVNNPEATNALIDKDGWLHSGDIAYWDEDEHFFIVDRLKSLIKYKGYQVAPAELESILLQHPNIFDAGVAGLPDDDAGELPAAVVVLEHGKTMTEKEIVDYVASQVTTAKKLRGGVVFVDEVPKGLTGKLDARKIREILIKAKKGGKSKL

[10] = target: T5, Calpain-2 catalytic subunit (Sus scrofa, UniProt P43367); experiment: pig calpain II inhibitor potency, dose response, biochemical, fluorogenic peptide substrate (AID 1420); assay type: functional
T5 sequence (P43367 whole entry): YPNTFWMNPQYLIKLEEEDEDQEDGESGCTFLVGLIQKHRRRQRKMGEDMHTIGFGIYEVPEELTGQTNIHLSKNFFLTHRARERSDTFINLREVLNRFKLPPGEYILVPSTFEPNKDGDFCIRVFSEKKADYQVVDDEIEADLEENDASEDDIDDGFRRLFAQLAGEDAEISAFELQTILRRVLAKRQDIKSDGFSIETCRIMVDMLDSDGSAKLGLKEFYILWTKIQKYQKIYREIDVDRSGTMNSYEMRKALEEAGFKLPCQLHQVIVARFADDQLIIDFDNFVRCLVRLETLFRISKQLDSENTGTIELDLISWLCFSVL

Protein skinhead-1 = target: T6, Protein skinhead-1 (Caenorhabditis elegans, UniProt P34707); assay type: functional
T6 sequence (P34707 whole entry): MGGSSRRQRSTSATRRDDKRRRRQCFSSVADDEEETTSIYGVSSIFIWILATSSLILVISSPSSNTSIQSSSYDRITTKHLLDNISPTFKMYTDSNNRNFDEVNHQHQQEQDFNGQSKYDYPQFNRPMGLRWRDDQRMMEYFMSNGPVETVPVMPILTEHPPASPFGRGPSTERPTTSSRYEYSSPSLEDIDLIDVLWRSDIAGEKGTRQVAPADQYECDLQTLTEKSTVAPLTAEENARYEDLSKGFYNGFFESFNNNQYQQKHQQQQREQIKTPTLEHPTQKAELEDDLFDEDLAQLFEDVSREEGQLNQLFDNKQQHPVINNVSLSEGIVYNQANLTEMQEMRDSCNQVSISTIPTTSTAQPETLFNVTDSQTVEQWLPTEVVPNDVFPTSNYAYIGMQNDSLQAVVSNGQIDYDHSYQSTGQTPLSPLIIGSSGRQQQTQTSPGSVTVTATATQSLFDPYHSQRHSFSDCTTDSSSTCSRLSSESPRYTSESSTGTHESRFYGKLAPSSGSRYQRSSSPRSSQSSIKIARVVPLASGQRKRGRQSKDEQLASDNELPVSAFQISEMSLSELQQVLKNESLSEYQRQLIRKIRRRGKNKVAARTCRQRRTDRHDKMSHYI

For `CCCCC(c1nnnn1CC1CCCO1)N1CCN(c2nc3ccccc3s2)CC1` (configuration not stated), which EC50 [1] is on record?
The EC50 was 1.06 µM (active).

With `Cc1ccc(O)c(C(=O)c2cc(C#N)c3nc4ccccc4n3c2)c1` as the compound, how does the IC50 (HEK293 [2]) read?
The IC50 was 10.2 µM (inactive).

What about the IC50 (HEK293 [3]) of the same compound?
Its IC50 is > 20 µM (inactive).

What about the EC50 [4] of the same compound?
Its EC50 is 17.5 µM (active).

What about the EC50 (HEK293 [5]) of the same compound?
The EC50 was 3.28 µM (active).

What about the IC50 (HEK293 [6]) of the same compound?
The IC50 was 14.8 µM (active).

Which results are given for `CC(Sc1n[nH]c2c3ccccc3nc-2n1)C(=O)NC1CCCCC1` (configuration not stated)?
IC50 (HEK293 [2]): 9.89 µM (active); IC50 (HEK293 [3]): > 20 µM (inactive); EC50 (HEK293 [5]): 4.88 µM (active); IC50 (HEK293 [6]): 11.1 µM (active)

Which EC50 [1] does the source give for `CCN1CCN(c2c(S(=O)(=O)c3ccc(C)c(C)c3)cnc3ccc(F)cc23)CC1` here?
The EC50 was 0.944 µM (active).

With `Cc1ccc(C(CC(=O)NCCCN(C)C)c2ccc(OC(C)C)cc2)cc1` (configuration not stated) as the compound, how does the IC50 (Coagulation factor XII) read?
The IC50 was > 50 µM (inactive).

Which results are given for `S=C(Nc1ccc(Oc2ccccc2)cc1)N1CCN(c2ccccn2)CC1`?
IC50 (HEK293 [2]): 6.67 µM (active); IC50 (HEK293 [3]): > 20 µM (inactive); EC50 (HEK293 [5]): 9.44 µM (active); IC50 (HEK293 [6]): 5.27 µM (active)

Which EC50 [1] does the source give for `CCOC(=O)C1=NN(C(=O)c2ccc(C)cc2)C(O)(c2ccc(Cl)cc2)C1` (configuration not stated) here?
The EC50 was 9.44 µM (active).

And the EC50 (Streptococcus)?
The EC50 was 8.19 µM (active).

And the EC50 [7]?
The EC50 was 2.15 µM (active).

And the EC50 (Streptokinase A)?
The EC50 was > 150 µM (not active).

For `CN(CCc1ccccn1)C(=S)Nc1cccc(S(=O)(=O)N(C)C)c1`, which EC50 [1] is on record?
Its EC50 is 5.31 µM (active).

Which EC50 [1] does the source give for `CN(C)C(CNC(=O)CCc1c[nH]c2ccccc12)c1ccccc1` (configuration not stated) here?
The EC50 was 0.0747 µM (active).

For `O=C(Cc1ccccc1[N+](=O)[O-])Nc1ccccc1C(=O)N1CCCC1`, which IC50 (Coagulation factor XII) is on record?
Its IC50 is > 50 µM (inactive).

Which results are given for `COCCCn1c(=O)/c(=C\c2ccccc2OC(C)C)s/c1=C(/C#N)C(=O)Nc1ccc(C(=O)O)cc1`?
EC50 [8]: > 112 µM (not active); EC50 (Streptococcus): > 50 µM (not active); IC50 (Coagulation factor XII): > 50 µM (inactive); EC50 [7]: 1.44 µM (active); EC50 [9]: > 112 µM (not active); IC50 [10]: 3.61 µM (not active); EC50 (Streptokinase A): > 150 µM (not active)

With `O=C(Oc1cncc(Cl)c1)c1ccco1` as the compound, how does the IC50 (Coagulation factor XII) read?
The IC50 was 1.39 µM (active).

What about the IC50 (Protein skinhead-1) of the same compound?
The IC50 was > 100 µM (inactive).
